# Source: publication PMC12903969, “Discovery of a Novel and Potent Kir4.1 Inhibitor as a Safe and Rapid‐Onset Antidepressant Agent in Mice” (Advanced Science, 2025)
# Several values for one entry are separate records, joined by “and”; a condition that tells them apart may be missing. Equal values may be shown once. Read-outs that look alike come from different tables or passages of the source.
# Experiments:
# Kir4.1 T162A = biological target: T1, Kir4.1 T162A (Homo sapiens, UniProt P78508, T162A); test: Whole-cell patch clamp, Kir4.1 point mutant T162A; assay type: cell-based; settings: JX3212 3 µM (Fig 2D)
# T1 construct: expressed in transfected cells; host or cells: CHO-K1
# Method: Plasmids encoding WT human potassium channels Kir1.1, Kir2.1, Kir2.2, Kir4.1, and Kir4.2 were obtained from the Beijing Genomics Institute. All point mutations were constructed using the QuickChange II Site‐Directed Mutagenesis Kit (Stratagene) and subsequently verified by sequencing.
# CHO‐K1 cells were maintained in DMEM/F12 growth medium containing 10% fetal bovine serum. Plasmids encoding the target genes (3600 ng) and enhanced green fluorescent protein (400 ng) were cotransfected into cells using Lipofectamine 2000 (Invitrogen) in accordance with the manufacturer's instructions. Cells were seeded onto poly‐d‐lysine (PDL)‐coated glass coverslips 1 h prior to electrophysiological recordings. […]
# Whole‐cell patch‐clamp recordings were obtained either in transiently transfected CHO‐K1 cells or in primary cultured astrocytes at room temperature using standard patch‐clamp techniques with an Axopatch‐700B amplifier (Axon Instruments). […] Macroscopic currents generated by expressed potassium channels were recorded under the voltage‐clamp conditions with an internal pipette solution composed of (in mM): 140 KCl, 5 NaCl, 1 CaCl2, 1 MgCl2, 10 HEPES, and 10 EGTA, pH 7.2 adjusted with KOH. […] Astrocytic resting membrane potentials were recorded under current‐clamp conditions (I = 0 pA) using standard internal and external solutions, determined immediately after achieving whole‐cell mode.
# hERG = biological target: T2, hERG (Homo sapiens, UniProt Q12809); test: hERG inhibition (QPatch, CHO-hERG cells); assay type: cell-based
# T2 construct: expressed in transfected cells; host or cells: CHO-hERG
# Method: CHO‐hERG cells were cultured to 60–80% confluency in 175‐cm^2 flasks, washed with PBS, and digested with detachin. After centrifugation, the cells were resuspended in medium at 2–5×10^6 mL^−1. Patch‐clamp recordings were performed using a QPatch with extracellular solution (140 NaCl, 5 KCl, 2 CaCl2, 1 MgCl2, 10 HEPES, 10 glucose, pH 7.4) and intracellular solution (145 KCl, 1 MgCl2, 5 EGTA, 10 HEPES, 5 Mg‐ATP, pH 7.3). Cells were clamped at −80 mV, stimulated with a 50 ms pre‐pulse to −50 mV, followed by 2 s depolarization to +40 mV, and 2 s repolarization to −50 mV, repeated every 5 s. After baseline recording, the test compound at various concentrations or 300 nM cisapride (positive control) was applied.
# [1] = system: MDA-MB-468 breast cancer cells; test: Cytotoxicity test (CCK-8); assay type: cell-based; settings: Homo sapiens, MDA-MB-468, 48 h, CCK-8, 48 h; read-out: IC50 against MDA-MB-468 breast cancer cells
# In short: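 Cells seeded at 12,000/well in L15 for 24 h, then exposed 48 h to compounds at 0.41-100.00 µM (DMSO <0.4%). Viability by 10% CCK-8, 2 h at 37 °C, absorbance 450 nm, expressed as percent of control.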
# Kir4.1 = biological target: T3, Kir4.1 (Homo sapiens, UniProt P78508); test: Whole-cell patch clamp, Kir4.1 currents in transfected CHO-K1 cells; assay type: cell-based; settings: for inhibition at 1 µM: CHO-K1, 1 μM; for inhibition at 10 µM: CHO-K1, 10 μM; for IC50: whole-cell patch clamp
# T3 construct: host or cells: CHO-K1
# T3 sequence (P78508 1-379): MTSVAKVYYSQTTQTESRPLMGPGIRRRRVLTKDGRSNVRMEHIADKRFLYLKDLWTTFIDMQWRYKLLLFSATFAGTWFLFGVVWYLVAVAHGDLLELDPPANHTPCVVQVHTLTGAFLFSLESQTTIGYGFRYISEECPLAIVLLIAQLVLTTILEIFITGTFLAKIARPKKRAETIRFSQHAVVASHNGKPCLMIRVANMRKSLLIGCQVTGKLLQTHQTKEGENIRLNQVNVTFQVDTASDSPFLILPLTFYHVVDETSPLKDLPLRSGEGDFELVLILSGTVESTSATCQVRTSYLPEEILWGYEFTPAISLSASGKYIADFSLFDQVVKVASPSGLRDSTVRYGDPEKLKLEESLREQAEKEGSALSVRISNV
# In short: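 Transiently transfected CHO-K1 cells (with EGFP), whole-cell voltage clamp at room temperature; pipette 140 mM KCl pH 7.2, bath 140 mM NaCl/5 mM KCl pH 7.4. Currents evoked from −80 mV holding by a step to −120 mV then ramp to +50 mV; compounds applied by perfusion.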
# C57BL/6J mice after CSDS = test: CSDS model, forced swim test; assay type: in vivo; settings: single i.p. injection 10 mg kg−1
# Method: The 10‐day CSDS paradigm was conducted as previously described.^[ [24] ^] CD‐1 aggressive mice were singly housed in defeat cages on one side of a perforated plexiglass partition 24 h before the defeat session. Experimental C57BL/6J mice were placed daily on the resident cage side of a novel CD‐1 aggressor that rapidly initiated a physical attack on the intruder. After 10‐min of social defeat, the intruder mice were housed on the opposite side of the partition within a shared home cage, experiencing further sensory contact for the subsequent 24 h. In contrast, control mice were maintained in their home cages and allowed to explore the empty defeat cages for 10 min each day.
# Mice were placed individually in a transparent glass cylinder (25 cm high, 10 cm wide) filled with water (temperature 23–25 °C) to a depth of 10 cm, and prevented from making contact with the bottom. Mice behaviors were videotaped from each side. The observation period lasted for 6 min, with the final 4 min used to measure immobile behavior, which was processed using the AnyMaze Tracking System (Stoelting).
# T1 sequence (P78508 whole entry T162A): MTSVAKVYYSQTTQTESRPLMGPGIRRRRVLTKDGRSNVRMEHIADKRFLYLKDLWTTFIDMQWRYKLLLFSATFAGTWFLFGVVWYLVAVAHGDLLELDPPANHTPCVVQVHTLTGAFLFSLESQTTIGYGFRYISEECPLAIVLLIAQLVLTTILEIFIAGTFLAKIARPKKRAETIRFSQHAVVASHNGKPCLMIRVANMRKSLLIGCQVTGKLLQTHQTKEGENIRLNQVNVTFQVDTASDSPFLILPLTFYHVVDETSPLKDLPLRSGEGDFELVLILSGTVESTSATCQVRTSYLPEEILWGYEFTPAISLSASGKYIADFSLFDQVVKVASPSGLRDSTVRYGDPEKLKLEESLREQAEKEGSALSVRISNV
# T2 sequence (Q12809 whole entry): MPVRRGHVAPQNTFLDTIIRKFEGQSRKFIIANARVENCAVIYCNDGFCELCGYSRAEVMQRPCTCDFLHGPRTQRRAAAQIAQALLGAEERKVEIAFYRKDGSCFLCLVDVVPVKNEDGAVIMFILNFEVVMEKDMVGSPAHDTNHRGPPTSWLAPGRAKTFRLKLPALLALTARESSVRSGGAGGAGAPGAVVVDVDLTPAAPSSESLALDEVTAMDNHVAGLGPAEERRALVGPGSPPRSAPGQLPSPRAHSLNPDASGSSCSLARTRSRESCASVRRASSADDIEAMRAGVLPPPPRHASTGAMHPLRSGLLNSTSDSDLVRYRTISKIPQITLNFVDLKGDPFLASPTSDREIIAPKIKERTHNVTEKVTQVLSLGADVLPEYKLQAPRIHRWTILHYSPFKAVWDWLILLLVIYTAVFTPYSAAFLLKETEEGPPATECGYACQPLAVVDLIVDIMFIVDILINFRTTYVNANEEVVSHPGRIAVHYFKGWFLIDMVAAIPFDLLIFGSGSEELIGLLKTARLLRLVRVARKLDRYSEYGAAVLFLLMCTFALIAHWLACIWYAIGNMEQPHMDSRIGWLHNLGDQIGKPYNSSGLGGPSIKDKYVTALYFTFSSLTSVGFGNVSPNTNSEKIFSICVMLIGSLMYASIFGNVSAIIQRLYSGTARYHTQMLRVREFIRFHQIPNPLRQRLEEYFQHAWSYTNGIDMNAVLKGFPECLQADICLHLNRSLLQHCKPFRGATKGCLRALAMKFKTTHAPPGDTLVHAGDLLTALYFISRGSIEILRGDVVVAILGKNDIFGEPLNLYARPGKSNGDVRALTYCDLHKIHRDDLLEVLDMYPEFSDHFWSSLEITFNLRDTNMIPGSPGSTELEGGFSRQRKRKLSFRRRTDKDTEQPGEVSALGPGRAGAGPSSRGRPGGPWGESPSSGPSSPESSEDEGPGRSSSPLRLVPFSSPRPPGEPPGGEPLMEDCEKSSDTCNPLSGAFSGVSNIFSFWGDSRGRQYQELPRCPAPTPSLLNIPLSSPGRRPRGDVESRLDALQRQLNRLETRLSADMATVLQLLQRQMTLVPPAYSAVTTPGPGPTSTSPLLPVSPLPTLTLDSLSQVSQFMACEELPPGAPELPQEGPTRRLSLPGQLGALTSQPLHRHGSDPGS
structure (smiles),measurement,setting,value
"c1ccc2c(c1)oc1ccc(Nc3ccnc(NCCCN4CCOCC4)n3)cc12 [JX3212, N^4-(dibenzo[b,d]furan-2-yl)-N^2-(3-morpholinopropyl)pyrimidine-2,4-diamine]","Mutation: T162A inhibition, single recordings",Kir4.1 T162A,80.9735 and 73.6489 and 64.6435 and 83.1492 and 87.0339
same,IC50,hERG,1.02 µM
same,IC50,[1],13700 ± 610 nM
same,inhibition at 0.5 µM,"Kir4.1; CHO-K1, 0.5 μM, +50 mV, read-out: Kir4.1 Inhibition ± SD (%) at 0.5 μM, +50 mV",82.8 ± 1.51%
same,inhibition at 0.5 µM,"Kir4.1; CHO-K1, 0.5 μM, -120 mV, read-out: Kir4.1 Inhibition ± SD (%) at 0.5 μM, -120 mV",73.2 ± 3.59%
same,inhibition at 0.5 µM,"Kir4.1; CHO-K1, 0.5 µM, read-out: Kir4.1 inhibition at 0.5 µM",> 60%
same,inhibition at 1 µM,"Kir4.1; +50 mV, read-out: Kir4.1 Inhibition ± SD (%) at 1 μM, +50 mV",82.5 ± 5.51%
same,inhibition at 1 µM,"Kir4.1; -120 mV, read-out: Kir4.1 Inhibition ± SD (%) at 1 μM, -120 mV",84.5 ± 3.09%
same,inhibition at 3 µM,"Kir4.1; CHO-K1, 3 µM, mean ± SEM, read-out: current inhibition, Kir4.1 WT",92.4 ± 2.25%
same,inhibition at 10 µM,"Kir4.1; +50 mV, read-out: Kir4.1 Inhibition ± SD (%) at 10 μM, +50 mV",96 ± 1.52%
same,inhibition at 10 µM,"Kir4.1; -120 mV, read-out: Kir4.1 Inhibition ± SD (%) at 10 μM, -120 mV",97.3 ± 1.01%
same,inhibition at 3 µM,"Kir4.1; CHO-K1, JX3212 3 µM (Fig 2A), read-out: Kir isoforms: Kir4.1 inhibition, single recordings",94.9%
same,inhibition at 3 µM,"Kir4.1; CHO-K1, JX3212 3 µM (Fig 2D), read-out: Mutation: Kir4.1 WT inhibition, single recordings",92.1%
same,"Kir isoforms: Kir4.1 inhibition, single recordings",Kir4.1; JX3212 3 µM (Fig 2A),94.131 and 95.7029
same,"Mutation: Kir4.1 WT inhibition, single recordings",Kir4.1; JX3212 3 µM (Fig 2D),94.7739 and 90.2954
same,improvement in target activity over lead EHop-016,Kir4.1; Kir4.1 IC50 ratio,2.6 fold
same,IC50,"Kir4.1; CHO cells transiently expressing Kir4.1, +50 mV, read-out: IC50 for Kir4.1 inhibition (+50 mV, outward currents)",190 nM
same,IC50,"Kir4.1; CHO cells transiently expressing Kir4.1, −120 mV, read-out: IC50 for Kir4.1 inhibition (−120 mV, inward currents)",280 nM
same,CSDS: immobility in FST (in words),C57BL/6J mice after CSDS,reduced immobility duration
